The test system of assay [1] is NCI-H358 cells. The experiment in a line: CellTiter-Glo cellular proliferation/viability assay, fixed concentration of KRAS G12C inhibitor. The class given is cell-based. To be noted: Homo sapiens, 120 h, compound of Formula I alone, 5 days, read-out: 2D CTG IC50. The text has this: The combination was studied by a cell viability assay. NCI-H358 cells were split onto a 96-well plate.
On the technique in general: ATP-based viability assays read luminescence as a measure of living cells.

Assay [2] deals with NCI-H2122 cells. The assay is described as above. In kind it is cell-based. To be noted: Homo sapiens, NCI-H2122, 120 h, compound of Formula I alone, 5 days, read-out: 2D CTG IC50.

Structures are written as SMILES.

`COCOC[C@H]1C[C@H]2COc3c(Sc4cnc(N5CCC6(CC5)CO[C@@H](C)[C@H]6N)c(CO)n4)ccnc3N2C1` [The compound of Formula I]: the IC50 amounted to 168 nM in assay [1] and 2780 nM in assay [2].

Broadly, the IC50 is the concentration at which inhibition is half-maximal.

The record behind these values is US20250195533A1, “COMBINATION THERAPIES FOR THE TREATMENT OF CANCER” (Erasca, Inc., priority 2020, published 2025).
